In patent publication US20140142333A1, “NOVEL ANILINE DERIVATIVES AND USE THEREOF” (NEOMICS Co, Ltd., priority 2011, published 2014):

Tests used:
AIMP2-DX2 [1] = target: T1, AIMP2-DX2 (Homo sapiens, UniProt Q13155); assay: luciferase assay of pGL-DX-2 transfected A549 cells; details: luciferase activity 4 hours after compound treatment; N.C (DMSO) 20089; lower = inhibition
T1 sequence (Q13155 1-251 isoform Q13155-2): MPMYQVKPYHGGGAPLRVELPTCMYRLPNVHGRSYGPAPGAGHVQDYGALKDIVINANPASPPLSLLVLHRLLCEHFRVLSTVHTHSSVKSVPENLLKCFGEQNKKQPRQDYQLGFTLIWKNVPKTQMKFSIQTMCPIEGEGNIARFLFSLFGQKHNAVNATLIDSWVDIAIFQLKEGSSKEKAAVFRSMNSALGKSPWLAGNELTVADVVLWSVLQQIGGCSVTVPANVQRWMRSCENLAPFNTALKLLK

AIMP2-DX2 [2] = target: T1, AIMP2-DX2; assay: luciferase assay of pGL-DX-2 transfected H460 cells; details: luciferase activity 4 hours after compound treatment; N.C (DMSO) 8627; lower = inhibition
Description: In order to screen for a compound specifically inhibiting the activity of AIMP2-DX2, from a compound library bought from ChemDive (US), the inventors' transfected lung cancer cell line, H460, with pGL2-DX2 (see FIG. 2). After culturing the cell line for 24 hours, they treated it with a compound. Then, after further culturing for 4 hours, luciferase activity was measured through a luciferase assay kit according to a manufacturer protocol (Promega, US), by using a luminometer.
After further culturing for 4 hours, luciferase activity was measured.

Row | AIMP2-DX2 activity in A549 cells (AIMP2-DX2 [1]) | AIMP2-DX2 activity in H460 cells (AIMP2-DX2 [2]) | SMILES
1 | 14179 | 7101 | Cc1ccc(NC(=O)/C=C/C(=O)Nc2ccc(C)c(C)c2)cc1C [compound 1, N1,N4-bis(3,4-dimethylphenyl)fumaramide]
2 | 14072 | 7292 | Cc1cccc(NC(=O)/C=C/C(=O)Nc2cccc(C)c2)c1 [compound 2, N1,N4-di-m-tolylfumaramide]
3 | 10043 | 7749 | Cc1ccc(C)c(NC(=O)/C=C\C(=O)Nc2ccc(C)c(C)c2)c1 [compound 3, N1-(2,5-dimethylphenyl)-N4-(3,4-dimethylphenyl)maleamide]
4 | 9605 | 8189 | Cc1cccc(NC(=O)/C=C\C(=O)Nc2cccc(C)c2)c1 [compound 4, N1,N4-di-m-tolylmaleamide]
5 | 9643 | 7427 | Cc1ccc(NC(=O)/C=C\C(=O)Nc2ccc(F)cc2C)cc1C [compound 5, N1-(3,4-dimethylphenyl)-N4-(4-fluoro-2-methylphenyl)maleamide]
6 | 10551 | 8901 | Cc1ccc(NC(=O)/C=C\C(=O)Nc2ccc(C)c(F)c2)cc1C [compound 6, N1-(3,4-dimethylphenyl)-N4-(3-fluoro-4-methylphenyl)maleamide]
7 | 8268 | 5019 | Cc1ccc(NC(=O)/C=C\C(=O)Nc2cc(Cl)cc(Cl)c2)cc1C [compound 7, N1-(3,5-dichlorophenyl)-N4-(3,4-dimethylphenyl)maleamide]
8 | 6705 | 7648 | Cc1ccc(C)c(NC(=O)/C=C\C(=O)O)c1 [compound 8, (Z)-4-[(2,5-dimethylphenyl)amino]-4-oxobut-2-enoic acid]
9 | 6786 | 7064 | Cc1cc(C)cc(NC(=O)/C=C\C(=O)O)c1 [compound 9, (Z)-4-[(3,5-dimethylphenyl)amino]-4-oxobut-2-enoic acid]
10 | 12399 | 8045 | CCCCc1ccc(NC(=O)/C=C\C(=O)O)cc1 [compound 10, (Z)-4-[(4-butylphenyl)amino]-4-oxobut-2-enoic acid]
11 | 6328 | 7143 | Cc1cccc(NC(=O)/C=C\C(=O)O)c1 [compound 11, (Z)-4-oxo-4-(m-tolylamino) but-2-enoic acid]
12 | 7937 | 7031 | O=C(O)/C=C\C(=O)Nc1ccc(F)cc1 [compound 12, (Z)-4-[(4-fluorophenyl)amino]-4-oxobut-2-enoic acid]
13 | 8049 | 7855 | O=C(O)/C=C\C(=O)Nc1cc(Cl)cc(Cl)c1 [compound 13, (Z)-4-[(3,5-dichlorophenyl)amino]-4-oxobut-2-enoic acid]
14 | 240 | 230 | Cc1cc(Cl)cc(Cl)c1NC(=O)/C=C\C(=O)O [compound 14, (Z)-4-[(2,4-dichloro-6-methylphenyl)amino]-4-oxobut-2-enoic acid]
15 | 6981 | 8621 | Cc1cc(C)cc(NC(=O)/C=C\C(=O)Nc2ccc(C)c(C)c2)c1 [compound 15, N1-(3,4-dimethylphenyl)-N4-(3,5-dimethylphenyl)maleamide]
16 | 6871 | 7511 | CCCCc1cccc(NC(=O)/C=C\C(=O)Nc2ccc(C)c(C)c2)c1 [compound 16, N1-(3-butylphenyl)-N4-(3,4-dimethylphenyl)maleamide]
17 | 6975 | 5718 | Cc1ccc(NC(=O)/C=C\C(=O)Nc2ccc(Br)cc2)cc1C [compound 17, N1-(4-bromophenyl)-N4-(3,4-dimethylphenyl)maleamide]

Row | AIMP2-DX2 activity in A549 cells (AIMP2-DX2 [1]) | AIMP2-DX2 activity in H460 cells (AIMP2-DX2 [2]) | SMILES
18 | 4239 | 3246 | COc1cccc(NC(=O)/C=C\C(=O)Nc2ccc(F)cc2)c1 [compound 18, N1-(4-fluorophenyl)-N4-(3-methoxyphenyl)maleamide]
19 | 3978 | 3715 | CCc1cccc(NC(=O)/C=C\C(=O)Nc2ccc(F)cc2)c1 [compound 19, N1-(3-ethylphenyl)-N4-(4-fluorophenyl)maleamide]
20 | 6446 | 7639 | Cc1ccc(NC(=O)/C=C\C(=O)O)cc1F [compound 20, (Z)-4-[(3-fluoro-4-methylphenyl)amino]-4-oxobut-2-enoic acid]
21 | 7285 | 6061 | O=C(/C=C/C(=O)Nc1cc(Cl)cc(Cl)c1)Nc1cc(Cl)cc(Cl)c1 [compound 21, N1,N4-bis(3,5-dichlorophenyl)fumaramide]
22 | 5647 | 6377 | O=C(/C=C/C(=O)Nc1ccc(Br)cc1)Nc1ccc(Br)cc1 [compound 22, N1,N4-bis(4-bromophenyl) fumaramide]
23 | 5352 | 6391 | O=C(/C=C/C(=O)Nc1ccc(Cl)c(Cl)c1)Nc1ccc(Cl)c(Cl)c1 [compound 23, N1,N4-bis(3,4-dichlorophenyl)fumaramide]
24 | 5812 | 7094 | Cc1ccc(NC(=O)/C=C/C(=O)Nc2ccc(C)c(F)c2)cc1F [compound 24, N1,N4-bis(3-fluoro-4-methylphenyl)fumaramide]
25 | 5152 | 6085 | COc1ccc(NC(=O)/C=C\C(=O)Nc2ccc(OC)cc2)cc1 [compound 25, N1,N4-bis(4-methoxyphenyl) maleamide]
26 | 6525 | 6428 | Cc1ccc(NC(=O)/C=C\C(=O)Nc2ccc(F)cc2)cc1F [compound 26, N1-(3-fluoro-4-methylphenyl)-N4-(4-fluorophenyl)maleamide]
27 | 5586 | 6029 | Cc1cc(F)ccc1NC(=O)/C=C\C(=O)Nc1ccc(F)cc1C [compound 27, N1,N4-bis(4-fluoro-2-methylphenyl)maleamide]
28 | 6691 | 7722 | COc1cccc(NC(=O)C(C)C(=O)Nc2cc(C)ccc2C)c1 (stereo not drawn) [compound 28, N1-(2,5-dimethylphenyl)-N3-(3-methoxyphenyl)-2-methylmalonamide]
29 | 5662 | 5916 | Cc1cccc(NC(=O)/C=C\C(=O)Nc2ccc(F)cc2)c1 [compound 29, N1-(4-fluorophenyl)-N4-(m-tolyl)maleamide]
30 | 7291 | 7167 | COc1cccc(NC(=O)C(C)C(=O)Nc2cc(C)cc(C)c2)c1 (stereo not drawn) [compound 30, N1-(3,5-dimethylphenyl)-N3-(3-methoxyphenyl)-2-methylmalonamide]
31 | 5771 | 6346 | CCOC(=O)C(C)C(=O)Nc1ccc2cc3ccccc3cc2c1 (stereo not drawn) [compound 31, ethyl 3-(anthracen-2-ylamino)-2-methyl-3-oxopropanoate]
32 | 19889 | 4848 | CCOC(=O)CC(=O)Nc1ccc(O)cc1Cl [compound 32, ethyl 3-[(2-chloro-4-hydroxyphenyl)amino]-3-oxopropanoate]
33 | 18631 | 5403 | CCOC(=O)C(C)C(=O)Nc1ccc(O)cc1Cl (stereo not drawn) [compound 33, ethyl 3-[(2-chloro-4-hydroxyphenyl)amino]-2-methyl-3-oxopropanoate]
